Experimental data reported in patent publication US10858335B2 (Rigel Pharmaceuticals, Inc., priority 2014, dated 2020).

tested on: GDF8 signaling (p-SMAD-3 (Ser423/425)); assay: AlphaScreen SureFire SMAD3 (p-Ser423/425) assay, GDF8-stimulated cells (GDF pSMAD); assay type: cell-based; conditions: Mus musculus, MPC-11, GDF8-stimulated pSMAD3, MPC11; tested as the salt form given; read-out: GDF pSMAD (MPC11) (μM), inhibition of GDF8 signaling

**Q.** With `Cc1cc(-c2ncccc2-c2ccc3ncc(C#N)n3c2)c(C)cc1F` [compound 1063] as the compound, how does the IC50 read?
**A.** 4.45 µM

**Q.** `Cc1cnc(-c2cccc(O)c2)c(-c2ccc3ncnc(N)c3c2)c1` [compound 991, 3-(3-(4-aminoquinazolin-6-yl)-5-methylpyridin-2-yl)phenol] was tested. Which IC50 did it give?
**A.** 20.2 µM

**Q.** How did the IC50 turn out when `COc1cnc(-c2ccc(F)c(Cl)c2)c(-c2ccc3ncnc(N)c3c2)c1` [compound 992, 6-(2-(3-chloro-4-fluorophenyl)-5-methoxypyridin-3-yl)quinazolin-4-amine] was run?
**A.** 1.86 µM

same assay, conditions: Mus musculus, MPC-11, MPC11; GDF8-stimulated; p-SMAD3 AlphaScreen; read-out: GDF pSMAD (MPC11) (inhibition of GDF8 signaling)

**Q.** Which IC50 does the source give for `N#Cc1cnc2ccc(-c3cccnc3-c3cccc(C(F)(F)F)c3)cn12` [compound 560, 6-(2-(3-(Trifluoromethyl)phenyl)pyridin-3-yl)imidazo[1,2-a]pyridine-3-carbonitrile] here?
**A.** 2.48 µM

**Q.** `Cc1cc(-c2ncccc2-c2ccn3ncc(C(=O)NCCC45CCCN4CCC5)c3c2)ccc1F` [compound 805, 5-(2-(4-Fluoro-3-methylphenyl)pyridin-3-yl)-N-(2-(tetrahydro-1H-pyrrolizin-7a(5H)-yl)ethyl)pyrazolo[1,5-a]pyridine-3-carboxamide] was tested. Which IC50 did it give?
**A.** 0.953 µM

**Q.** Which IC50 does the source give for `CCc1cccc(-c2ncccc2-c2ccc3[nH]ncc3c2)c1` [Compound 149, 5-(2-(3-Ethylphenyl)pyridin-3-yl)-1H-indazole] here?
**A.** 0.642 µM

**Q.** How did the IC50 turn out when `Cc1ccc(F)cc1-c1ncccc1-c1ccc2ncnc(N)c2c1` [compound 466, 6-(2-(5-Fluoro-2-methylphenyl)pyridin-3-yl)quinazolin-4-amine] was run?
**A.** 7.58 µM

**Q.** With `Cc1ccc(Cl)c(-c2ncccc2-c2ccn3ncnc3c2)c1` [compound 876, 7-(2-(2-Chloro-5-methylphenyl)pyridin-3-yl)-[1,2,4]triazolo[1,5-a]pyridine] as the compound, how does the IC50 read?
**A.** 2.37 µM

**Q.** For `Cc1cn2cc(-c3cccnc3-c3cccc(C4CC4)c3)ccc2n1` [compound 533, 6-(2-(3-Cyclopropylphenyl)pyridin-3-yl)-2-methylimidazo[1,2-a]pyridine], which IC50 is on record?
**A.** 6.12 µM

**Q.** `COCCOc1cccc(-c2ncccc2-c2ccc3ncnc(N)c3c2)c1` [compound 482, 6-(2-(3-(2-Methoxyethoxy)phenyl)pyridin-3-yl)quinazolin-4-amine] was tested. Which IC50 did it give?
**A.** 1.7 µM

**Q.** With `Cc1cc(-c2ncc(NCc3ccc(Cl)nc3)cc2-c2ccc3ncsc3c2)ccc1F` [compound 321, 5-(Benzo[d]thiazol-6-yl)-N-((6-chloropyridin-3-yl)methyl)-6-(4-fluoro-3-methylphenyl)pyridin-3-amine] as the compound, how does the IC50 read?
**A.** 0.679 µM

**Q.** `Nc1ccc(-c2ccc3ncsc3c2)c(-c2cccc(C3CC3)c2)n1` [Compound 28, 5-(Benzo[d]thiazol-6-yl)-6-(3-cyclopropylphenyl)pyridin-2-amine] was tested. Which IC50 did it give?
**A.** 1.75 µM

**Q.** With `Cc1cc(-c2ncccc2-c2ccc3ncc(C(=O)Nc4cccc(S(N)(=O)=O)c4)n3c2)ccc1F` [compound 616, 6-(2-(4-Fluoro-3-methylphenyl)pyridin-3-yl)-N-(3-sulfamoylphenyl)imidazo[1,2-a]pyridine-3-carboxamide] as the compound, how does the IC50 read?
**A.** 2.19 µM

**Q.** `Cc1cc(-c2ncc(NCc3cnc[nH]3)cc2-c2ccc3ncsc3c2)ccc1F` [compound 322, N-((1H-Imidazol-5-yl)methyl)-5-(benzo[d]thiazol-6-yl)-6-(4-fluoro-3-methylphenyl)pyridin-3-amine] was tested. Which IC50 did it give?
**A.** 0.253 µM

**Q.** For `COc1cc(Nc2nccc(-c3cccnc3-c3ccc(F)c(C)c3)n2)cc(OC)c1OC` [compound 903, 4-(2-(4-Fluoro-3-methylphenyl)pyridin-3-yl)-N-(3,4,5-trimethoxyphenyl)pyrimidin-2-amine], which IC50 is on record?
**A.** 2.58 µM

**Q.** For `CC(C)c1cccc(-c2ncccc2-c2ccc3ncnc(N)c3c2)c1` [compound 478, 6-(2-(3-Isopropylphenyl)pyridin-3-yl)quinazolin-4-amine], which IC50 is on record?
**A.** 6.6 µM

**Q.** How did the IC50 turn out when `COc1ccc(F)c(-c2ncccc2-c2ccc3ncnc(N)c3c2)c1` [compound 473, 6-(2-(2-Fluoro-5-methoxyphenyl)pyridin-3-yl)quinazolin-4-amine] was run?
**A.** 0.292 µM

**Q.** With `Cc1cnc2ccc(-c3cccnc3-c3cc(Cl)c(F)cc3F)cn12` [compound 766, 6-(2-(5-Chloro-2,4-difluorophenyl)pyridin-3-yl)-3-methylimidazo[1,2-a]pyridine] as the compound, how does the IC50 read?
**A.** 0.105 µM

**Q.** Which IC50 does the source give for `Nc1ncnc2ccc(-c3cccnc3-c3cc(F)c(F)c(F)c3)cc12` [compound 469, 6-(2-(3,4,5-Trifluorophenyl)pyridin-3-yl)quinazolin-4-amine] here?
**A.** 1.58 µM

**Q.** With `Nc1ncnc2ccc(-c3cccnc3-c3cc(F)ccc3Cl)cc12` [compound 504, 6-(2-(2-Chloro-5-fluorophenyl)pyridin-3-yl)quinazolin-4-amine] as the compound, how does the IC50 read?
**A.** 4.96 µM

**Q.** Which IC50 does the source give for `Fc1ccc(-c2ncccc2-c2ccn3nccc3c2)cc1Cl` [compound 758, 5-(2-(3-Chloro-4-fluorophenyl)pyridin-3-yl)pyrazolo[1,5-a]pyridine] here?
**A.** 0.426 µM

**Q.** For `Cc1cc(-c2ncc(NCCCN3CCN(C)CC3)cc2-c2ccc3ncsc3c2)ccc1F` [compound 320, 5-(Benzo[d]thiazol-6-yl)-6-(4-fluoro-3-methylphenyl)-N-(3-(4-methylpiperazin-1-yl)propyl)pyridin-3-amine], which IC50 is on record?
**A.** 2.99 µM

**Q.** Which IC50 does the source give for `Cc1cc(-c2ncccc2-c2ccn3c(C(=O)NCCN4CCOCC4)ncc3c2)ccc1F` [compound 275, 7-(2-(4-Fluoro-3-methylphenyl)pyridin-3-yl)-N-(2-morpholinoethyl)imidazo[1,5-a]pyridine-3-carboxamide] here?
**A.** 2.95 µM

**Q.** For `Cc1cc(-c2ncccc2-c2ccn3ncc(C(=O)NCC45CCCN4CCC5)c3c2)ccc1F` [compound 804, 5-(2-(4-Fluoro-3-methylphenyl)pyridin-3-yl)-N-((tetrahydro-1H-pyrrolizin-7a(5H)-yl)methyl)pyrazolo[1,5-a]pyridine-3-carboxamide], which IC50 is on record?
**A.** 10.1 µM

**Q.** Which IC50 does the source give for `Cc1cc(-c2ncccc2-c2ccc3ncnc(OCCN4CCCC4)c3c2)ccc1F` [compound 443, 6-(2-(4-Fluoro-3-methylphenyl)pyridin-3-yl)-4-(2-(pyrrolidin-1-yl)ethoxy)quinazoline] here?
**A.** 0.429 µM

**Q.** `Cc1cc(-c2ncccc2-c2ccc3[nH]nc(N)c3c2)ccc1F` [compound 788, 5-(2-(4-Fluoro-3-methylphenyl)pyridin-3-yl)-1H-indazol-3-amine] was tested. Which IC50 did it give?
**A.** 4.04 µM

**Q.** With `Cc1cc(-c2ncccc2-c2ccc3cncn3c2)ccc1F` [compound 269, 6-(2-(4-Fluoro-3-methylphenyl)pyridin-3-yl)imidazo[1,5-a]pyridine] as the compound, how does the IC50 read?
**A.** 1.38 µM

**Q.** `N#Cc1cnc2ccc(-c3cccnc3-c3cccc(Cl)c3)nn12` [compound 949, 6-(2-(3-Chlorophenyl)pyridin-3-yl)imidazo[1,2-b]pyridazine-3-carbonitrile] was tested. Which IC50 did it give?
**A.** 0.375 µM

**Q.** For `CC(=O)c1cnc2ccc(-c3cccnc3-c3ccc(F)c(C)c3)cn12` [compound 586, 1-(6-(2-(4-Fluoro-3-methylphenyl)pyridin-3-yl)imidazo[1,2-a]pyridin-3-yl)ethan-1-one], which IC50 is on record?
**A.** 0.617 µM

**Q.** How did the IC50 turn out when `Nc1ncnc2ccc(-c3cccnc3-c3ccc4c(c3)CCC4)cc12` [compound 470, 6-(2-(2,3-Dihydro-1H-inden-5-yl)pyridin-3-yl)quinazolin-4-amine] was run?
**A.** 21.1 µM

**Q.** `FC(F)(F)c1cccc(-c2ncccc2-c2ccc3[nH]ncc3c2)c1` [Compound 197, 5-(2-(3-(Trifluoromethyl)phenyl)pyridin-3-yl)-1H-indazole] was tested. Which IC50 did it give?
**A.** 0.359 µM

**Q.** With `Cc1cccc(-c2ncccc2-c2ccc3c(c2)OCO3)c1` [Compound 109, 3-(Benzo[d][1,3]dioxol-6-yl)-2-m-tolylpyridine] as the compound, how does the IC50 read?
**A.** 17.2 µM
